How the values were obtained:
Rat Ear Oedema = experiment: Anti-Inflammatory Activity--Inhibition of Rat Ear Oedema (croton oil); assay type: in vivo; conditions: dose 100 μg, inner surface of ears, male rats, 6 hours
Procedure: (i) Anti-Inflammatory Activity--Inhibition of Rat Ear Oedema
The test compounds are dissolved in acetone and 40ul containing 5% croton oil is applied to the inner surface of each of the ears of 60-80 g male rats. Animals are killed 6 hours later and the ears are removed. Standard size (0.5 cm diameter) discs are punched out and the discs weighed. Mean weight of the ear discs is calculated and from this percentage inhibition of ear inflammation in relation to croton oil alone treated ears are calculated.

ACTH = experiment: Systemic Effects--ACTH Suppression in Adrenalectomised Rats; assay type: in vivo, Male CD rats; conditions: single intra-tracheal, 4 h
Procedure: (ii) Systemic Effects--ACTH Suppression in Adrenalectomised Rats
Male CD rats (90-120 g) were adrenalectomised under Isoflurane anaesthesia and drinking water was supplemented with 0.9% saline. Four days later the animals receive a single intra-tracheal dose (under Isoflurane anaesthesia) of compound suspended in saline (containing 0.2% Tween-80, 0.2 ml) at 10am. After 4 h animals are sacrificed by administration of Euthetal and blood samples are taken by intra-cardiac puncture and collected into heparinised tubes. The samples are centrifuged (20 minutes at 1000 RPM at 4 deg C.), the plasma is collected and assayed by Radioimmunoassay (RIA) for Adrenocorticotrophic hormone (ACTH) using a DPC double antibody RIA kit. Intact and vehicle control groups were included in each experiment in order to account for diurnal variation in ACTH and effects of vehicle. Results are calculated with respect to the RIA standard curve and expressed as ACTH pg/ml plasma, allowing percentage reduction in ACTH to be calculated.

CC1(C)O[C@@H]2C[C@H]3[C@@H]4C[C@H](F)C5=CC(=O)C=C[C@]5(C)[C@@]4(F)[C@@H](O)C[C@]3(C)[C@]2(SC2CCOC2=O)O1 (single isomer, unassigned) [Example 2 Isomer A, 6α,9α-Difluoro-11β-hydroxy-16α,17α-isopropylidenedioxy-17β-(2-oxo-tetrahydro-furan-3-yl-sulfanyl)-androsta-1,4-dien-3-one]
% Inhibition (ear inflammation) (Rat Ear Oedema): 56% | % Reduction in ACTH (ACTH; dose 125 μg): 5% | % Reduction in ACTH (ACTH; dose 250 μg): 29% | % Reduction in ACTH (ACTH; dose 500 μg): 45%

CC1(C)O[C@@H]2C[C@H]3[C@@H]4C[C@H](F)C5=CC(=O)C=C[C@]5(C)[C@@]4(F)[C@@H](O)C[C@]3(C)[C@]2(S[C@H]2CCOC2=O)O1 (single isomer, unassigned) [Example 2 Isomer B, 6α,9α-Difluoro-11β-hydroxy-16α,17α-isopropylidenedioxy-17β-(2-oxo-tetrahydro-furan-3-yl-sulfanyl)-androsta-1,4-dien-3-one]
% Inhibition (ear inflammation) (Rat Ear Oedema): 54%

CCC[C@@H]1O[C@@H]2C[C@H]3[C@@H]4C[C@H](F)C5=CC(=O)CC[C@]5(C)[C@@]4(F)[C@@H](O)C[C@]3(C)[C@]2(SC2CCOC2=O)O1 (single isomer, unassigned) [Example 3 Isomer A, 16α,17α-(R-Butylidenedioxy)-6α,9α-difluoro-11β-hydroxy-17β-(2-oxo-tetrahydro-furan-3-yl-sulfanyl)-androst-4-en-3-one]
% Inhibition (ear inflammation) (Rat Ear Oedema): 55%

CC1(C)O[C@@H]2C[C@H]3[C@@H]4C[C@H](F)C5=CC(=O)C=C[C@]5(C)[C@@]4(F)[C@@H](O)C[C@]3(C)[C@]2(C(=O)CO)O1 [Fluocinolone acetonide, reference compound]
% Reduction in ACTH (ACTH; dose 1 μg): 49% | % Reduction in ACTH (ACTH; dose 5 μg): 84%

— US6114318A, “17β-(2-oxo-tetrahydrofuranyl)-thio- substituted androstane derivatives” (Glaxo Group Limited, priority 1995, dated 2000)
